Assay results published in patent US20260242419A1, “A CYCLIC PEPTIDE FOR TRAPPING INTERLEUKIN-1 BETA” (Merck Sharp & Dohme LLC, priority 2023, published 2026).
Starred links: 1 amine or outer side, 2 acyl side, 3 side chain; linkers in the order of their positions; H or OH if unused. Non-standard residues stand in square brackets, D forms with d. Residues, ends and D or L forms follow the SMILES beside them. dPro(4R-(4-pyridylmethyl)) = O=C(O)[C@H]1C[C@@H](Cc2ccncc2)CN1; Trp(βS-Me,4-F) = C[C@@H](c1c[nH]c2cccc(F)c12)[C@H](N)C(=O)O; Bip(4'-COOH) = N[C@@H](Cc1ccc(-c2ccc(C(=O)O)cc2)cc1)C(=O)O; dPro(4R-Bzl(4-F)) = O=C(O)[C@H]1C[C@@H](Cc2ccc(F)cc2)CN1; X29 = O=C([C@H]1[C@@H](Cc2ccc(Cl)cc2)CCN1[*:1])[*:2]; Ala(pyrimidin-5-yl) = N[C@@H](Cc1cncnc1)C(=O)O; Phe(4-CONH2) = NC(=O)c1ccc(C[C@H](N)C(=O)O)cc1; Phe(4-COOH) = N[C@@H](Cc1ccc(C(=O)O)cc1)C(=O)O; Ala(2-pyrazinyl) = N[C@@H](Cc1cnccn1)C(=O)O; Pro(cis-4-F) = O=C(O)[C@@H]1C[C@H](F)CN1; Ala(4-THP) = N[C@@H](CC1CCOCC1)C(=O)O; AEF = NCCOc1ccc(C[C@H](N)C(=O)O)cc1; d(αMeD) = C[C@@](N)(CC(=O)O)C(=O)O; 2Pal = N[C@@H](Cc1ccccn1)C(=O)O; 4Pal = N[C@@H](Cc1ccncc1)C(=O)O; Dab = NCC[C@H](N)C(=O)O; Aib = CC(C)(N)C(=O)O

Target: T1, IL-1β (Homo sapiens, UniProt P01584)
T1 construct: purchased BioLegend 579404
Test: IL-6 assay in MRC5 cells: inhibition of IL-1β induced IL-6 secretion (AlphaLISA)
Format: cell-based
Details: inhibition of IL-1β induced IL-6 secretion in MRC5 cells; read-out: MRC5 IC50
Outline: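 Compound was pre-incubated 1 h at ambient temperature with recombinant human IL-1β at 2λ EC80 before adding human lung fibroblast MRC5 cells (3000/well) in EMEM with 0.025% BSA. After overnight culture at 37 °C, 5% CO2, secreted IL-6 in conditioned medium was measured by AlphaLISA; IC50 from 4-parameter logistic fits.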

T1 sequence (P01584 117-269): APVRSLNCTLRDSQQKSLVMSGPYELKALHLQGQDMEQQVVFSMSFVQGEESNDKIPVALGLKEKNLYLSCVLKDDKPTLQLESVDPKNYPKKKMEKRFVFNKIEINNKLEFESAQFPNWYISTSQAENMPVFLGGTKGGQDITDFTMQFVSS

Compound | IC50
CC(=O)NCCOc1ccc(C[C@@H]2NC(=O)[C@H]3C[C@@H](Cc4ccncc4)CN3C(=O)CNC(=O)[C@H](CCN)NC(=O)[C@H](CCC(N)=O)NC(=O)[C@H](CC3CCOCC3)NC(=O)[C@@](C)(CC(=O)O)NC(=O)[C@H](Cc3c[nH]c4ccccc34)NC(=O)[C@H](CO)NC(=O)C(C)(C)NC(=O)[C@H]([C@@H](C)c3c[nH]c4cccc(F)c34)NC(=O)[C@@H]3C[C@H](F)CN3C(=O)CNC(=O)[C@H](Cc3ccc(C(N)=O)cc3)NC(=O)[C@H](Cc3ccncc3)NC2=O)cc1 [Example 377] (cyclo([AEF](Ac)[4Pal][Phe(4-CONH2)]G[Pro(cis-4-F)][Trp(βS-Me,4-F)][Aib]SW[d(αMeD)][Ala(4-THP)]Q[Dab]G[dPro(4R-(4-pyridylmethyl))])) | 0.04 nM
C[C@@H](c1c[nH]c2cccc(F)c12)[C@@H]1NC(=O)[C@@H]2C[C@H](F)CN2C(=O)CNC(=O)[C@H](Cc2ccc(C(=O)O)cc2)NC(=O)[C@H](Cc2ccncc2)NC(=O)[C@H](Cc2ccc(-c3ccc(C(=O)O)cc3)cc2)NC(=O)[C@H]2[C@@H](Cc3ccc(Cl)cc3)CCN2C(=O)CNC(=O)[C@H](CCN)NC(=O)[C@H](CCC(N)=O)NC(=O)[C@H](Cc2cncnc2)NC(=O)[C@@](C)(CC(=O)O)NC(=O)[C@H](Cc2c[nH]c3ccccc23)NC(=O)[C@H](CO)NC(=O)C(C)(C)NC1=O [Example 330] (cyclo([Bip(4'-COOH)][4Pal][Phe(4-COOH)]G[Pro(cis-4-F)][Trp(βS-Me,4-F)][Aib]SW[d(αMeD)][Ala(pyrimidin-5-yl)]Q[Dab]G[X29])) | 0.008 nM
C[C@@H](c1c[nH]c2cccc(F)c12)[C@@H]1NC(=O)[C@@H]2C[C@H](F)CN2C(=O)CNC(=O)[C@H](Cc2ccc(C(=O)O)cc2)NC(=O)[C@H](Cc2ccncc2)NC(=O)[C@H](Cc2ccc(-c3ccc(C(=O)O)cc3)cc2)NC(=O)[C@H]2C[C@@H](Cc3ccc(F)cc3)CN2C(=O)CNC(=O)[C@H](CCN)NC(=O)[C@H](CCC(N)=O)NC(=O)[C@H](Cc2cncnc2)NC(=O)[C@@](C)(CC(=O)O)NC(=O)[C@H](Cc2c[nH]c3ccccc23)NC(=O)[C@H](CO)NC(=O)C(C)(C)NC1=O [Example 128] (cyclo([Bip(4'-COOH)][4Pal][Phe(4-COOH)]G[Pro(cis-4-F)][Trp(βS-Me,4-F)][Aib]SW[d(αMeD)][Ala(pyrimidin-5-yl)]Q[Dab]G[dPro(4R-Bzl(4-F))])) | 0.009 nM
C[C@@H](c1c[nH]c2cccc(F)c12)[C@@H]1NC(=O)[C@@H]2C[C@H](F)CN2C(=O)CNC(=O)[C@H](Cc2ccc(C(=O)O)cc2)NC(=O)[C@H](Cc2ccncc2)NC(=O)[C@H](Cc2ccc(-c3ccc(C(=O)O)cc3)cc2)NC(=O)[C@H]2C[C@@H](Cc3ccc(F)cc3)CN2C(=O)CNC(=O)[C@H](CCN)NC(=O)[C@H](CCC(N)=O)NC(=O)[C@H](Cc2cnccn2)NC(=O)C(C)(C)NC(=O)[C@H](Cc2c[nH]c3ccccc23)NC(=O)[C@H](CCC(=O)O)NC(=O)C(C)(C)NC1=O [Example 101] (cyclo([4Pal][Phe(4-COOH)]G[Pro(cis-4-F)][Trp(βS-Me,4-F)][Aib]EW[Aib][Ala(2-pyrazinyl)]Q[Dab]G[dPro(4R-Bzl(4-F))][Bip(4'-COOH)])) | 0.021 nM
C[C@@H](c1c[nH]c2cccc(F)c12)[C@@H]1NC(=O)[C@@H]2C[C@H](F)CN2C(=O)CNC(=O)[C@H](Cc2ccc(C(=O)O)cc2)NC(=O)[C@H](Cc2ccncc2)NC(=O)[C@H](Cc2ccc(-c3ccc(C(=O)O)cc3)cc2)NC(=O)[C@H]2C[C@@H](Cc3ccc(F)cc3)CN2C(=O)CNC(=O)[C@H](CCN)NC(=O)[C@H](CCC(N)=O)NC(=O)[C@H](Cc2ccccn2)NC(=O)C(C)(C)NC(=O)[C@H](Cc2c[nH]c3ccccc23)NC(=O)[C@H](CCC(=O)O)NC(=O)C(C)(C)NC1=O [Example 73] (cyclo([Bip(4'-COOH)][4Pal][Phe(4-COOH)]G[Pro(cis-4-F)][Trp(βS-Me,4-F)][Aib]EW[Aib][2Pal]Q[Dab]G[dPro(4R-Bzl(4-F))])) | 0.031 nM
